This note sets out measurements from EP0230052B1, “Immunoamplifiers and related Compositions” (Gottlieb, Arthur A., priority 1985, dated 1987).

One assay deals with DH response. Briefly: Modulator assay methods of the '379 patent (amplifier activity, DH test). The note with it: other moieties in effluents of Example 6B process. The assay is classed as in vivo, human.
Assay [1] concerns DH skin reaction to tetanus toxoid. Details: species or system human. The settings on record: in vivo.
In assay [2] the test system is IL-2 production in response to mitogen PHA. Briefly: IL-2 in vitro test (PHA-stimulated IL-2 production). The settings on record: optimal concentration of TGG. The assay is classed as cell-based, human. An excerpt: The production of IL-2 in response to mitogen was characterized by the existence of the same optimal concentration phenomenon (paradoxical effect) described above.

For the substance Gly-Gly, the “immunological activity as assayed by DH test” value in the assay with DH response is given as “None of these other moieties appeared to possess immunological activity”. Turning to Tyrosylglycylglycine [TGG], the “optimum concentration for maximum immune effect” value in assay [1] is given as roughly 3 fM. In addition, the figures for the “ratio of PHA-stimulated IL-2 production with TGG added to without TGG” value in assay [2] (subject #1) and in assay [2] (subject #2) were 1.45 and 2.55, respectively. With Ser-Phe, the “immunological activity as assayed by DH test” value in the assay on DH response is “None of these other moieties appeared to possess immunological activity”.
